Results on 14 molecules are retold here after PubChem BioAssay (NCI).

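Test compounds were applied to cells in 96-well plates for 48 hours at 5 doses. GI50 marks 50% less growth. TGI: total growth inhibition.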

Assay in all cases: DTP human tumour cell line panel, 48 h
Assay [1] has as its system 786-0 renal.
The test system of assay [2] is SW-620 colon.
The test system of assay [3] is UACC-62 melanoma.
Assay [4] has as its system ACHN renal.
For assay [5], the system named is SF-539 CNS.
For assay [6], the system named is M14 melanoma.
For assay [7], the system named is SNB-75 CNS.
Assay [8] has as its system A498 renal.
For assay [9], the system named is SN12C renal.
For assay [10], the system named is SR leukemia.

By TGI is commonly meant the concentration at which net growth stops. A high value points to lower sensitivity of the cells. As for `COc1cccc(/C=N/[N-]C(N)=O)c1[O-].[Cu+2].c1ccncc1`, the TGI is 24 µM in assay [1]; 40.8 µM in [2]; 41.1 µM in assay [3]; more than 100 µM in assay [4]; 54.2 µM in assay [5]; 31.4 µM in assay [6]. Further, the TGI amounted to 33.4 µM in assay [7], 45.5 µM in [8] and 46.7 µM in assay [9].

For `COC(=O)C1=CCS(=O)(=O)C1`, the TGI in [1], in assay [2], in assay [3], in assay [4], in [5] and in assay [6] was more than 100 µM in each case. Further, the concentration for total growth inhibition (TGI) in assay [7], in assay [8] and in assay [9] was more than 100 µM in each case.

`O=C1OC(/C=C/c2ccccc2)C(=O)C1=O` (stereo not drawn): the TGI in assay [1], in [2], in assay [3], in assay [4], in assay [5] and in [6] was more than 100 µM in each case. Besides, the TGI in assay [7] and in assay [8] was more than 100 µM each time.

`O=c1c2ccc(Br)cc2nc(-c2ccccc2)n1NC1OC(CO)C(O)C(O)C1O` (stereo not drawn): the TGI in assay [1], in assay [2], in [3], in assay [4], in assay [5] and in [6] was more than 100 µM throughout. In addition, the TGI in assay [7], in [8] and in [9] was more than 100 µM each time.

With `O=C(NCCOCCO)c1ccc(O)cc1`, the concentration for total growth inhibition (TGI) in assay [1], in assay [2], in [3], in assay [4], in assay [5] and in [6] was more than 100 µM in each case. For the same molecule, the TGI in [8] and in [9] was more than 100 µM each time.

Take `COc1cc(C2C(C(=O)Nc3ccccc3C)=C(C)NC(C)=C2C(=O)Nc2ccccc2C)ccc1O`: the TGI in assay [1], in [2], in [3], in assay [4], in [5] and in assay [6] was more than 100 µM each time. Also, the TGI in [7], in [8] and in assay [9] was more than 100 µM throughout.

One may read the GI50 as the concentration at which growth is held to half of that of the control. `COc1cc(Nc2nccc(-c3cnn4ncccc34)n2)cc(OC)c1`: the GI50 in [1] is 0.0861 µM; in assay [2], 0.0758 µM; in [3], 0.0532 µM; in [4], 0.0565 µM; in assay [5], 0.0637 µM; in assay [6], 0.0891 µM. For the same molecule, the GI50 in [7] is 0.0754 µM; in assay [8], 0.0576 µM; in [9], 0.0942 µM. The total growth inhibition concentration (TGI) in assay [1] is more than 17.6 µM; in [2], 4.78 µM; in [3], 0.223 µM; in assay [4], 4.16 µM; in assay [5], 0.257 µM; in assay [6], 0.838 µM. Moreover, the TGI in assay [7] was 0.308 µM; in [8], 0.183 µM; in [9], more than 25 µM.

On to `COc1ccc2c(C(=O)NCCCCCC(=O)O)cc3cc4c(cc3c2c1)OCO4`, for which the GI50 in assay [1] was more than 100 µM; in assay [2], more than 100 µM; in assay [3], 83 µM; in assay [4] it was more than 100 µM; in assay [5], more than 100 µM; in assay [6] it was more than 100 µM. Further, the GI50 was 23.9 µM in assay [7], more than 100 µM in assay [8] and more than 100 µM in assay [9]. The TGI in assay [1], in assay [2], in [3], in [4], in assay [5] and in assay [6] was more than 100 µM throughout. Further, the TGI in [7] is 97.9 µM; in assay [8] it was more than 100 µM; in assay [9] it was more than 100 µM.

For the molecule `Cn1c(=O)c2nc3sc4ccccc4c(=N)n3c2n(C)c1=O`, the TGI in assay [1], in [2], in assay [3], in assay [4], in assay [5] and in assay [10] was more than 100 µM in each case. Also, the TGI in [8] and in [9] was more than 100 µM in each case.

`O=C1OC(=O)C2C1C1(c3ccccc3)OC2(c2ccccc2)c2c(Br)c(Br)c(Br)c(Br)c21` (stereo not drawn): the TGI in [1], in assay [2], in assay [3], in [5], in assay [6] and in assay [7] was more than 100 µM in each case. Also, the TGI in [8] and in assay [9] was more than 100 µM throughout.

Turning to `C=C1[C@@H]2CCC(C)(C)[C@H]1CCC(=O)[C@@H]2C(=O)OC`, the TGI in assay [1], in assay [2], in assay [3], in assay [4], in assay [5] and in assay [6] was more than 100 µM throughout. Besides, the TGI in assay [10], in [8] and in assay [9] was more than 100 µM throughout.

Take `Cc1ccc(Sc2cc([N+](=O)[O-])cc(Sc3ccc(C)cc3)c2Sc2ccc(C)cc2)cc1`: the TGI in assay [1], in [2], in assay [3], in assay [4], in assay [5] and in [6] was more than 100 µM throughout. Besides, the TGI in assay [7], in [8] and in assay [9] was more than 100 µM in each case.

Take `Nc1nc(N)c(N=Nc2ccc([As](=O)(O)O)c(O)c2)c(N)n1`: the TGI was more than 100 µM in assay [1]; more than 100 µM in [2]; more than 100 µM in assay [3]; more than 100 µM in assay [4]; more than 56.8 µM in assay [5]; more than 100 µM in assay [6]. Besides, the TGI in [7] is more than 89.5 µM; in [8], more than 100 µM; in [9], more than 26.8 µM.

As to `CC12CCC(C)(c3cc(O)c(O)cc31)c1cc(O)c(O)cc12`, the TGI turned out to be 27.9 µM in assay [1]; 40.9 µM in assay [2]; 36.2 µM in assay [3]; 32.5 µM in assay [4]; 36 µM in assay [6]; 52.5 µM in [7]. In assay [9], this molecule returned a TGI of 48.6 µM.
